Tested on: streptozocin-induced diabetic mouse
Test: Streptozocin-induced diabetic mouse (Example 6)
Assay type: in vivo
From the text: The streptozocin-induced diabetic mouse is a convenient animal model of type 1 diabetes because researchers are able to chemically induce diabetes under controlled conditions rather than waiting for mice to become diabetic naturally or by forcing diabetes through prescribed obesity. Based on experience with the streptozocin model in the rat, a high degree of variability was anticipated for the induction of the disease in mice and therefore 60 mice were induced with streptozocin. Mice were injected intraperitoneally with streptozocin at 40 mg/kg in citrate buffer, pH4.5, on 5 consecutive days in an attempt to render them diabetic. A mouse was considered diabetic once its blood glucose level was greater than 16.7 mmol/L (300 mg/dL) for at least 1 week. If the blood glucose level of any animal became too high (>400 mg/dL) the animal was treated with an effective amount of insulin. In this example, 60 male mice, ranging from 6-8 weeks old at the outset of the study, were treated with streptozocin as described above. Those mice that were declared diabetic were then used to test the effectiveness of HIP2 as compared to other test agents.
Animals were group housed in compliance with the National Research Council “Guide for the Care and Use of Laboratory Animals”. The animals received 12 hours light/12 hours dark, except when room lights were turned on during the dark cycle to accommodate study procedures. Room temperature was maintained between 18 to 26° C. at all times. Relative humidity was maintained between 30-70% at all times. All animals were given access to Harlan Teklad Rodent Diet or equivalent and tap water via water bottle. Animals were allowed to acclimate to their new environment for a minimum of 7 days prior to first dosing.
Mice were randomly divided and assigned to study groups. Each study group was assigned treatment with one of 5 test agents (see Treatment section below). Prior to being treated, each mouse was tested for diabetes via monitoring their blood glucose levels. After confirmation that the mice were diabetic (blood glucose levels greater than 16.7 mmol/L (300 mg/dL) for at least 1 week) the mice were dosed with their respective test agent.
Each study group received doses of one of the following test agents: HIP2, HIP1, HIP, Hamster INGAP (SEQ ID NO:1) or isotonic saline “Vehicle” (0.9% NaCl) (negative control). Mice were given doses of their respective agent interperitoneally twice daily (am and pm, +/−2 hours for each administration) at 250 ug/dose, in 100 ul dose volume, for 28 consecutive days. Test agents were prepared once daily by dissolving the appropriate amount of test agent in isotonic saline to result in a 2.5 mg/ml solution. Blood glucose levels were tested every 3 days, at the same time each day, using a glucometer. If the blood glucose level in any animal became too high, the animal was treated with insulin. At the end of the treatment, all surviving animals were euthanized by CO2 asphyxiation following terminal blood collection. Blood samples were collected under CO2 cardiocentesis. The plasma was separated and then frozen at −80° C. For histological analysis, the pancreas from each mouse was removed and snap-frozen.
Blood glucose levels are measured every 3 days and tracked to evaluate differences in glucose levels.

[1] = streptozocin mice, 250 ug/dose i.p. twice daily, 28 days, vs other test agents

HIP2: Human proIslet Peptide, fragment of human REG3A, in purified, synthetic, or recombinant form (SEQ ID NO:4) (IGLHDPTQGTEPNG; Fragment of naturally occurring human REG3 protein)
time at which mice were completely insulin-free: ≤ 21 days
glucose levels from baseline compared with control (streptozocin mice): significant reduction
blood glucose levels [1]: pronounced reduction
insulinitis in the pancreas [1]: decreased showing of insulinitis
insulin requirements (and rate of decrease) (streptozocin mice, compared to placebo): Significant reductions

From US8785400B2, “Methods and compositions relating to islet cell neogenesis” (CureDM Group Holdings, LLC, priority 2006, dated 2014)
